Measurements reported in patent US7897588B2, “Agents and methods for enhancing bone formation” (The Regents of the University of California, priority 2003, dated 2011).

How the values were obtained:
[1] = system: ERK1 and ERK2; assay: Western blot for phosphorylated ERK in M2 cells; type: cell-based, mouse; conditions: 5 μM 20S, 1, 4 or 8 hours
Procedure: Western blot analysis—After treatments, cells were lysed in lysis buffer, protein concentrations determined using the Bio-Rad protein assay (Hercules, Calif. U.S.A.), and SDS-PAGE performed as previously described. Probing for native and phosphorylated ERKs was performed as previously reported.
(A) M2 cells at confluence were pretreated for four hours with RPMI containing 1% FBS, followed by treatment with control vehicle or 5 μM 20S oxysterol for 1, 4, or 8 hours. Next total cell extracts were prepared and analyzed for levels of native or phosphorylated ERK (pERK) using specific antibodies as previously described. Data from a representative of four experiments are shown, each treatment shown in duplicate samples. (B) M2 cells at confluence were pretreated for 2 hours with control vehicle (C) or 20 μM PD98059 (PD) in osteogenic medium as previously described. Next, a combination of 22R and 20S oxysterols (RS, 5 μM each) were added to appropriate wells as indicated. After 10 days of incubation, matrix mineralization was quantified by the ^45Ca incorporation assay as previously described. Data from a representative of three experiments are reported as the mean±SD of quadruplicate determinations, normalized to protein concentration (p<0.01 for RS vs. RS+PD). […] After 10 days, adipocytes were visualized by oil Red O staining and quantified by light microscopy as previously described. […]

[2] = system: adipocyte P2 gene (aP2); assay: Northern blot for adipocyte P2 gene in troglitazone-treated M2 cells; type: cell-based, mouse; conditions: 10 μM Tro, 10 μM 20S, 10 days
Procedure: RNA isolation and Northern blot analysis—Following treatment of cells under appropriate experimental conditions, total RNA was isolated using the RNA isolation kit from Stratagene (La Jolla, Calif., U.S.A.). Total RNA ([…]) was run on a 1% agarose/formaldehyde gel and transferred to Duralon-UV membranes (Strategene, Calif., U.S.A.) and cross-linked with UV light. The membranes were hybridized overnight at 60 degree C. with ^32P-labeled mouse osteocalcin cDNA probe, mouse lipoprotein lipase (LPL), mouse adipocyte protein 2 (aP2) PCR-generated probes, human 28S or 18S rRNA probes obtained from Geneka Biotechnology (Montreal, Quebec, Canada) and Maxim Biotech (San Francisco, Calif., U.S.A.), respectively. […] The extent of gene induction was determined by densitometry.
Test 2: (A) M2 cells at confluence were treated in RPMI containing 10% FBS with control vehicle or 10 μM troglitazone (Tro) in the absence or presence of 10 μM 20S or 22S oxysterols. After 10 days, adipocytes were visualized by oil Red O staining and quantified by light microscopy, shown in (B). […] After 10 days, total RNA was isolated and analyzed for lipoprotein lipase (LPL), adipocyte P2 gene (aP2) or 18S rRNA expression by Northern blotting as described (Ref). […]

CC(C)CCC[C@](C)(O)[C@H]1CC[C@H]2[C@@H]3CC=C4C[C@@H](O)CC[C@]4(C)[C@H]3CC[C@@]21C [20S, 20(S)-hydroxycholesterol]
activation of ERK1 and ERK2 [1]: sustained activation | expression of adipocyte P2 gene (aP2) [2]: inhibition
